This is an account of results in patent US20070134261A1, “Effectors of innate immunity” (priority 2001, published 2007).

One series has as its system HBE cells. As to the kind of experiment: WST-1 assay (cell viability). In kind it is cell-based, human. A digest of the protocol: (§1)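 Both read-outs were colorimetric at OD490 on HBE cells after 24 h with 100 μg of each peptide. The WST-1 assay reported viability through mitochondrial dehydrogenase cleavage of the tetrazolium salt. The LDH assay tested the removed supernatant for enzyme leaked from membrane-damaged cells.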
Background: Formazan colour is commonly taken as a measure of viable cells.

The test system of another series is CD-1 mice. As to the kind of experiment: Lethal endotoxemia in galactosamine-sensitized CD-1 mice. To be noted: 2 μg LPS; peptide 200 μg/mouse = 8 mg/kg IP 15 min after LPS; 48 hours; control 0. In kind it is in vivo.
The subject of the next series is S. aureus. Put plainly: Murine S. aureus infection model (CD-1 mice). In kind it is in vivo, mouse. To be noted: peptide 200 μg IP; for CFU/ml (blood): 3 days, No Peptide 7.61 ± 1.7 × 10^3; for # Mice Survived (3 days)/Total mice in group: No Peptide 6/8. How it is done: (§2) BALB/c mice were given 1×10^5 Salmonella and cationic peptide (200 μg) by intraperitoneal injection. The mice were monitored for 24 hours at which point they were euthanized, the spleen removed, homogenized and resuspended in PBS and plated on Luria Broth agar plates with Kanamycin (50 μg/ml). The plates were incubated overnight at 37° C. and counted for viable bacteria (Table 49 and 50). CD-1 mice were given 1×10^8 S. aureus in 5% porcine mucin and cationic peptide (200 μg) by intraperitoneal injection (Table 51). The mice were monitored for 3 days at which point they were euthanized, blood removed and plated for viable counts. CD-1 male mice were given 5.8×10^6 CFU EHEC bacteria and cationic peptide (200 μg) by intraperitoneal (IP) injection and monitored for 3 days (Table 52). […] Many of the cationic peptides were shown not to be directly antimicrobial as tested by the Minimum Inhibitory Concentration (MIC) assay (Table 54).

Series [1] has as its system human bronchial epithelial cells (HBE). As to the kind of experiment: LDH release assay (Cytotoxicity Detection Kit). In kind it is cell-based. The settings on record: 100 μg/ml, 24 hours; no peptide control 1.0 ± 0.05. A digest of the protocol:
as §1
Background: LDH leaks from cells whose membrane has failed.

Series [2] has as its system RAW 264.7 mouse macrophage cells. In kind it is cell-based. To be noted: Peptide 20 μg/ml; 100 ng/ml E. coli 0111:B4 LPS, 6 h.
The next series concerns BALB/c mice. As to the kind of experiment: Lethal endotoxemia in galactosamine-sensitized BALB/c mice. In kind it is in vivo. The settings on record: 2 μg LPS; peptide 200 μg/mouse = 8 mg/kg IP 15 min after LPS; 48 hours; no peptide 10.
In the next series the test system is Salmonella. Put plainly: Salmonella infection in BALB/c mice (viable bacteria in spleen). To be noted: Table 49; peptide 200 μg IP, 24 h; Control 2.70 ± […] 10^5. The series is classed as in vivo, mouse. How it is done:
as §2

Series [3] concerns A549 human epithelial cells. As to the kind of experiment: Induction of chemokines (IL-8, MCP-1) in A549 cells (ELISA). The series is classed as cell-based. To be noted: peptide 10 ug/ml, 24 hr. How it is done:
The murine macrophage cell line RAW 264.7, THP-1 cells (human monocytes), a human epithelial cell line (A549), human bronchial epithelial cells (16HBEo14), and whole human blood were used. HBE cells were grown in MEM with Earle's. THP-1 cells were grown and maintained in RPMI 1640 medium. The RAW and A549 cell lines were maintained in DMEM supplemented with 10% fetal calf serum. […] DMEM was aspirated from cells grown overnight and replaced with fresh medium. After incubation of the cells with peptide, the release of chemokines into the culture supernatant was determined by ELISA (R&D Systems, Minneapolis, Minn.).
(ELISA stands for enzyme-linked immunosorbent assay.)

The format of series [4] is cell-based.

Values after ≈ are worked out from the molar mass of the structure shown. Like-named read-outs stand apart in the source and are kept apart here. Residues, ends and D or L forms follow the SMILES beside them.

Consider `CC[C@H](C)[C@H](NC(=O)[C@@H]1CCCN1C(=O)[C@H](CS)NC(=O)[C@H](CCCNC(=N)N)NC(=O)[C@@H](N)CC(C)C)C(=O)N[C@@H](C)C(=O)N1CCC[C@H]1C(=O)N[C@H](C(=O)N[C@H](C(=O)N1CCC[C@H]1C(=O)N[C@H](C(=O)N[C@@H](CS)C(=O)N[C@@H](CCCCN)C(=O)N[C@@H](CCCCN)C(=O)O)C(C)C)[C@@H](C)CC)C(C)C` [SEQ ID NO: 6] (H-LRCPIAPVIPVCKK-OH; N-terminus and C-terminus assumed), for which the “OD490 nm (WST-1 cell viability)” value with HBE cells is reported as 1.81 ± 0.05 OD490 nm. For the same compound, the Survival in the series on CD-1 mice was determined as 40%. Moreover, in the series on S. aureus, the “CFU/ml (blood)” value is reported as 1.98 ± 0.05 × 10^2 CFU/ml and the “# Mice Survived (3 days)/Total mice in group” value was 3/4. Further, the “LDH Release (OD490 nm)” value in series [1] was 0.97 ± 0.02 OD490 nm. Besides, in series [2], the “Inhibition of TNF-α” value was 59.8 ± 1.2%. The Survival in the series with BALB/c mice was 17%. Moreover, the “Viable Bacteria in the Spleen” value in the series with Salmonella is recorded as 2.57 ± 0.72 × 10^4 CFU/ml. The compound further showed an IL-8 in series [3] of 0.181 ng/mL. Besides, in [4] (24 h), the “MIC, C. rhod.” value is 64 µg/mL (≈ 41.6 µM); the “MIC, E. coli” value worked out at 128 µg/mL (≈ 83.3 µM); the “MIC, EHEC” value was 64 µg/mL (≈ 41.6 µM); the “MIC, S. typhim.” value was 128 µg/mL (≈ 83.3 µM). Also, the “MIC, S. aureus” value in [4] (Staphylococcus aureus, overnight, 96-well plate) was “>”.

`CC[C@H](C)[C@H](N)C(=O)N[C@@H](CC(C)C)C(=O)N1CCC[C@H]1C(=O)N[C@@H](Cc1c[nH]c2ccccc12)C(=O)N[C@@H](CCCCN)C(=O)N[C@@H](Cc1c[nH]c2ccccc12)C(=O)N1CCC[C@H]1C(=O)N[C@@H](Cc1c[nH]c2ccccc12)C(=O)N[C@@H](Cc1c[nH]c2ccccc12)C(=O)N1CCC[C@H]1C(=O)N[C@@H](Cc1c[nH]c2ccccc12)C(=O)N[C@@H](CCCNC(=N)N)C(=O)N[C@@H](CCCNC(=N)N)C(N)=O` [SEQ ID NO: 2]: in series [4] (24 h), the “MIC, C. rhod.” value was determined as 64 µg/mL (≈ 33.6 µM); the “MIC, E. coli” value is 4 µg/mL (≈ 2.1 µM); the “MIC, P. aerug.” value came out at 32 µg/mL (≈ 16.8 µM); the “MIC, S. aureus” value was determined as 16 µg/mL (≈ 8.39 µM). The “MIC, S. typhim.” value in series [4] (24 h) amounted to 16 µg/mL (≈ 8.39 µM).

Regarding `CSCC[C@H](NC(=O)[C@H](CO)NC(=O)[C@@H](NC(=O)[C@H](CCCCN)NC(=O)[C@H](Cc1ccccc1)NC(=O)[C@H](CS)NC(=O)[C@H](CO)NC(=O)[C@H](CCCNC(=N)N)NC(=O)[C@@H](N)CCCCN)C(C)C)C(=O)N[C@@H](CCCNC(=N)N)C(=O)NCC(=O)N[C@H](C(=O)N[C@@H](CO)C(=O)N[C@@H](CCCNC(=N)N)C(=O)N[C@@H](CCCNC(=N)N)C(=O)N[C@@H](CCCNC(=N)N)C(=O)N[C@@H](CS)C(=O)N[C@@H](CCCCN)C(=O)O)C(C)C` [SEQ ID NO: 27] (H-KRSCFKVSMRGVSRRRCK-OH; N-terminus and C-terminus assumed), the “OD490 nm (WST-1 cell viability)” value with HBE cells (100 μg/ml, 24 hours, no peptide control 1.63 ± 0.16) is 1.63 ± 0.03 OD490 nm. The Survival in the series on CD-1 mice is given as 20%. For the same compound, in the series with S. aureus, the “CFU/ml (blood)” value was 2.25 ± 0.1 × 10^2 CFU/ml and the “# Mice Survived (3 days)/Total mice in group” value is 3/4. Moreover, in [1], the “LDH Release (OD490 nm)” value was determined as 0.91 ± 0.04 OD490 nm. For the same compound, the “Inhibition of TNF-α” value in series [2] came to 51.1 ± 2.8%. For the same compound, in the series with BALB/c mice, the Survival is given as 50%. In addition, the “Viable Bacteria in the Spleen” value in the series with Salmonella is listed as 1.01 ± 0.26 × 10^5 CFU/ml. The same compound showed an IL-8 in [3] of 0.346 ng/mL. For the same compound, in series [4] (24 h), the “MIC, C. rhod.” value was determined as 2 µg/mL (≈ 0.915 µM); the “MIC, E. coli” value is 8 µg/mL (≈ 3.66 µM); the “MIC, EHEC” value was 4 µg/mL (≈ 1.83 µM); the “MIC, P. aerug.” value stood at 64 µg/mL (≈ 29.3 µM). Moreover, in series [4] (24 h), the “MIC, S. aureus” value amounted to 64 µg/mL (≈ 29.3 µM) and the “MIC, S. typhim.” value was 16 µg/mL (≈ 7.32 µM).
